Measured values published in US9334212B2, “Compounds and compositions” (Colgate-Palmolive Company, priority 2010, dated 2016).
Values after ≈ are worked out from the molar mass of the structure shown. Read-outs that look alike come from different tables or passages of the source.

Tests used:
Assay type in all cases: cell-based
[1] = test system: Corynebacterium xerosis (C. xerosis); test: Zone of Inhibition Test (ZOI); conditions: 37° C. 18 hours
Procedure: (§1) The compound of Formula (II) was evaluated for its antibacterial efficacy against representative skin bacteria such as Staphylococcus aureus (S. aureus), Staphylococcus epidermidis (S. epidermidis), Corynebacterium minutissimum (C. minutissimum), Corynebacterium xerosis (C. xerosis) and Escherichia coli (E. coli). Zone of inhibition (ZOI), Minimum Inhibitory Concentration (MIC), and a Short Interval Kill Test (SIKT) were all performed, and the results are described in Tables 2-4 (below).
(§2) The compound of Formula (II) was dissolved in polyethylene glycol (PEG 300), or in 100% ethanol at 0.5% concentration. 20 μL of each solution was placed on separate filter disks and air dried for 20 minutes. After 20 minutes of drying, the coated disks were placed in the bacterial lawn and plates were incubated at 37° C. for 18 hours, followed by measurement of ZOI.

[2] = test system: Staphylococcus epidermidis (S. epidermidis); test: Zone of Inhibition Test (ZOI); conditions: S. epiderm., 37° C. 18 hours
Procedure: as §1, §2

S. aureus = test: Rapid Agar Plate Assay (RAPA); conditions: for Log reduction in Bacterial Count: vs tap water washed plates
Procedure: (§3) The compound of Formula (II) was mixed with a base bar soap chip and tested for any residual antibacterial activity against S. aureus and E. coli by a rapid agar plate assay (RAPA). Briefly, the method involves washing TSA plates with the soap samples for 10 seconds, lathering for another 40 seconds and finally rinsing for 10 seconds. After air drying for 30 minutes, 100 μL of freshly prepared bacterial suspension (density was adjusted to 0.1 OD at 620 nm) was applied on the treated plates and then plates were incubated at 37° C. for about 18 hours. TSA plates washed with normal tap water were used as negative control. Next day, bacterial colonies were counted and converted to log 10 and the log reductions as a result of washing with samples were calculated.

E. coli = test: Rapid Agar Plate Assay (RAPA); conditions: vs tap water washed plates
Procedure: as §3

bacterial suspension = test: Short Interval Kill Test (SIKT)
Procedure: SIKT determines the kill effect of the test article at a predetermined exposure time. […] Briefly, 1.2 mL of the compound of Formula (II)+PEG 300 was transferred into a sterile test tube, to which 0.2 mL of a freshly prepared bacterial suspension (OD adjusted to 0.1 at 620 nm) was added and gently mixed. The reaction was neutralized at the 1 minute or at the 5 minute point by adding a neutralizing broth. The reaction mixture was further diluted with letheen broth in 10-fold fashion and plated on MCA (Microbial Count Agar) plates for viable bacterial count.

[3] = test system: Escherichia coli (E. coli); test: Zone of Inhibition Test (ZOI); conditions: Example 4
Procedure: as §1, §2
(§4) The antibacterial efficacy of the compound of Formula (II) was measured in comparison to triclosan, using various tests. The results are provided below in Tables 5 and 6.

[4] = test system: Escherichia coli (E. coli); test: Minimum Inhibitory Concentration (MIC), skin bacteria
Procedure: as §1
(§5) MIC against four common skin pathogens was evaluated for the compound of Formula (II), using the following method: A two-fold dilution of the compound of Formula (II) was prepared in a 96 well plate and a constant amount of bacteria added in each well. After 18-24 hours of incubation, bacterial growth was measured by using a Spectrophotometric Micro-plate Reader and the MIC values were determined.
as §4

[5] = test system: Staphylococcus aureus (S. aureus); test: as above; conditions: for MIC: Staphylococcus aureus, read-out: Minimum Inhibitory Concentration
Procedure: as §1, §5, §4

[6] = test system: Corynebacterium minutissimum (C. minutissimum); test: as above; conditions: for MIC: Corynebacterium minutissimum, read-out: Minimum Inhibitory Concentration
Procedure: as §1, §5, §4

[7] = test system: Staphylococcus aureus (S. aureus); test: Zone of Inhibition Test (ZOI)
Procedure: as §1
(§6) 20 μL of each solution was placed on separate filter disks and air dried for 20 minutes. After 20 minutes of drying, the coated disks were placed in the bacterial lawn and plates were incubated at 37° C. for 18 hours, followed by measurement of ZOI.
as §4

[8] = test system: Corynebacterium minutissimum (C. minutissimum); test: Zone of Inhibition Test (ZOI)
Procedure: as §1, §6, §4

S. mutans = test: Minimum Inhibitory Concentration, oral pathogens; conditions: Streptococcus mutans, read-out: Minimum Inhibitory Concentration
Text: (§7) Table 1 (below) describes the antibacterial efficacy of an exemplary compound of the present invention against common oral pathogens, A. viscosus and S. mutans.

A. viscosus = test: Minimum Inhibitory Concentration, oral pathogens; conditions: Actinomyces viscosus, read-out: Minimum Inhibitory Concentration
Text: as §7

[9] = test system: Corynebacterium xerosis (C. xerosis); test: Minimum Inhibitory Concentration (MIC), skin bacteria; conditions: read-out: Minimum Inhibitory Concentration
Procedure: as §1, §5

[10] = test system: Staphylococcus epidermidis (S. epidermidis); test: as above; conditions: for MIC: Staphylococcus epidermidis, read-out: Minimum Inhibitory Concentration
Procedure: as §1, §5

[11] = 0.5% in EtOH, 20 μL on filter disk
[12] = 0.5% in PEG 300, 20 μL on filter disk
[13] = 0.5% in EtOH, 20 μL on filter disk, 37° C. 18 hours
[14] = 0.5% in PEG 300, 20 μL on filter disk, 37° C. 18 hours

C=CCc1cc(Cl)c(O)c(-c2cc(CC=C)cc(Cl)c2O)c1 [Compound of Formula (II)]
Zone of Inhibition [1, 11]: 14 mm | Zone of Inhibition [1, 12]: 15 mm | Zone of Inhibition [2, 11]: 15 mm | Zone of Inhibition [2, 12]: 16 mm | Log reduction in Bacterial Count (S. aureus; 0.5% in soap chip): 0.506 log | Log reduction in Bacterial Count (S. aureus; 0.5% in soap chip, listed as compound of Formula (II)): 0.5 log | reduction in the growth (S. aureus; bar soap chip containing 0.5%): > 50% | Log reduction in Bacterial Count (E. coli; 0.5% in soap chip): 0.09 log | Short Interval Kill Test kill effect (bacterial suspension; 0.5% + PEG 300, exposure time 1 minute): 65.18 | Short Interval Kill Test kill effect (bacterial suspension; 0.5% + PEG 300, exposure time 5 minute): 87.37 | Zone of Inhibition ([3]; 0.5%): 0 mm | MIC ([4]; E. coli, 0.5% active, Example 4, read-out: Minimum Inhibitory Concentration): 1250 µg/mL | MIC ([5]; S. aureus, 0.5% active, Example 4): 2.44 µg/mL | MIC ([5]; S. aureus, + EtOH, 18-24 hours incubation): 39 µg/mL | MIC ([5]; S. aureus, + PEG 300, 18-24 hours incubation): 19.5 µg/mL | MIC ([6]; C. minutissimum, 0.5% active, Example 4): 9.7 µg/mL | MIC ([6]; C. minutissimum, + EtOH, 18-24 hours incubation): 39 µg/mL | MIC ([6]; C. minutissimum, + PEG 300, 18-24 hours incubation): 9.77 µg/mL | Zone of Inhibition [7, 13]: 13 mm | Zone of Inhibition [7, 14]: 15 mm | Zone of Inhibition ([7]; 0.5%, Example 4): 20 mm | Zone of Inhibition [8, 13]: 17 mm | Zone of Inhibition [8, 14]: 21 mm | Zone of Inhibition ([8]; 0.5%, Example 4): 22 mm | MIC (S. mutans; S. mutans): 0.5 to 1 µg/mL | MIC (A. viscosus; A. viscosus): 0.5 to 1 µg/mL | MIC ([9]; C. xerosis, + EtOH, 18-24 hours incubation): 156 µg/mL | MIC ([9]; C. xerosis, + PEG 300, 18-24 hours incubation): 78 µg/mL | Minimum Inhibitory Concentration ([10]; S. epiderm., + EtOH, 18-24 hours incubation): 39 ppm | MIC ([10]; S. epiderm., + PEG 300, 18-24 hours incubation): 39 µg/mL

C=CCc1ccc(O)c(-c2cc(CC=C)ccc2O)c1 [Magnolol, magnolol]
MIC (S. mutans): 32 µg/mL (≈ 120 µM) | MIC (A. viscosus): 32 µg/mL (≈ 120 µM)

O=C(Nc1ccc(Cl)cc1)Nc1ccc(Cl)c(Cl)c1 [TCC, reference compound]
Log reduction in Bacterial Count (S. aureus; 0.4% TCC bar): 2.409 log | Log reduction in Bacterial Count (E. coli; 0.4% TCC bar): 0.167 log | Short Interval Kill Test kill effect (bacterial suspension; 0.5%, exposure time 1 minute): 56.54 | Short Interval Kill Test kill effect (bacterial suspension; 0.5%, exposure time 5 minute): 74.11

Oc1cc(Cl)ccc1Oc1ccc(Cl)cc1Cl [Triclosan, 5-chloro-2-(2,4-dichlorophenoxy)phenol, reference compound]
Log reduction in Bacterial Count (S. aureus; 0.25% Triclosan bar): 2.409 log | Log reduction in Bacterial Count (E. coli; 0.25% Triclosan bar): 2.387 log | Zone of Inhibition ([3]; 0.15%): 40 mm | MIC ([4]; read-out: Minimum Inhibitory Concentration): < 2.44 µg/mL | Minimum Inhibitory Concentration ([5]; S. aureus, 0.15% active, Example 4): <2.44 ppm | MIC [5]: < 2.44 µg/mL | Minimum Inhibitory Concentration ([6]; C. minutissimum, 0.15% active, Example 4): 4.88 ppm | MIC [6]: 4.88 µg/mL (≈ 16.9 µM) | Zone of Inhibition ([7]; 0.15%, Example 4): 50 mm | Zone of Inhibition ([8]; 0.15%, Example 4): 21 mm | MIC (S. mutans): 1 to 2 µg/mL (≈ 3.45 to 6.91 µM) | MIC (A. viscosus): 1 to 2 µg/mL (≈ 3.45 to 6.91 µM) | MIC [9]: 9.76 µg/mL (≈ 33.7 µM) | MIC [10]: < 2.44 µg/mL
